Measured values: patent EP4745135A1 (Gluetacs Therapeutics (Shanghai) Co., Ltd., priority 2023, dated 2025)

Experiments:
CK1α = target: T1, CK1α (Homo sapiens, UniProt P48729+Q96SW2); experiment: Western blot, degradation of substrate protein in hPBMCs; assay type: cell-based
T1 construct: effects of the compounds of the present disclosure on the expression of target proteins in cells; endogenous in cells; host or cells: human PBMCs (Milecell Biotechnologies)

IKZF1 = target: T2, IKZF1 (Homo sapiens, UniProt Q13422+Q96SW2); experiment: as above; assay type: cell-based
T2 construct: effects of the compounds of the present disclosure on the expression of target proteins in cells; endogenous in cells; host or cells: human PBMCs (Milecell Biotechnologies)

IKZF2 = target: T3, IKZF2 (Homo sapiens, UniProt Q96SW2+Q9UKS7); experiment: as above; assay type: cell-based
T3 construct: effects of the compounds of the present disclosure on the expression of target proteins in cells; endogenous in cells; host or cells: human PBMCs (Milecell Biotechnologies)

IKZF3 = target: T4, IKZF3 (Homo sapiens, UniProt Q96SW2+Q9UKT9); experiment: as above; assay type: cell-based
T4 construct: effects of the compounds of the present disclosure on the expression of target proteins in cells; endogenous in cells; host or cells: human PBMCs (Milecell Biotechnologies)

WEE1 = target: T5, WEE1 (Homo sapiens, UniProt P30291+Q96SW2); experiment: as above; assay type: cell-based
T5 construct: effects of the compounds of the present disclosure on the expression of target proteins in cells; endogenous in cells; host or cells: human PBMCs (Milecell Biotechnologies)

GSPT1 = experiment: as above; assay type: cell-based, Human
[1] = target: T6, human Cereblon WT GST-tagged protein (Homo sapiens, UniProt Q96SW2); experiment: CRBN-binding affinity, HTRF (CEREBLON BINDING kit); settings: for inhibition at 0.5 µM: read-out: Inhibition Rate at 0.5 µM (%); for inhibition at 2 µM: read-out: Inhibition Rate at 2 µM (%)
T6 construct: purchased CISBIO 64BDCRBNPEH

[2] = tested on: Human multiple myeloma cell (MM.1S); experiment: Tumor cell proliferation inhibition (CellTiter-Meiluncell luminescent cell viability assay); settings: for inhibition at 0.01 µM / inhibition at 0.5 µM: Homo sapiens, MM1.S, 96 h; for inhibition at 0.01 µM: read-out: Inhibition Rate at 10 nM (%); for inhibition at 0.5 µM: read-out: Inhibition Rate at 500 nM (%)
Protocol: (§1) The tumor cells used herein were cultured in a cell culture medium listed in table 2 at 37°C in an incubator with 5% CO2. Prior to experimentation, all cell lines used were correctly identified by STR profiling, and tested negative for mycoplasma contamination using a mycoplasma detection kit through routine screenings.
(§2) The IC50 values of the compounds of the present disclosure (including the compounds in Table 1 and Examples) were determined using the CellTiter-Meiluncell Luminescent Cell Viability Assay Kit from Dalian Meilun Biotech Co., Ltd. The detailed procedure is as follows: Tumor cells were seeded in 96-well cell culture plates at the densities specified in Table 3. On the following day, the test compounds of the present disclosure were subjected to serial dilution. The dilution can be performed according to one of the following two methods: • (1) The first dilution method: The test compounds of the present disclosure (including the compounds in Table 1 and Examples) were subjected to 5-fold serial dilutions starting from a highest concentration of 2000 µM, resulting in a total of 9 concentrations from high to low (2000, 400, 80, 16, 3.2, 0.64, 0.128, 0.0256, 0.00512 µM). Subsequently, 0.5 µL of the test compound dilution was transferred into the 96-well plate containing the cells, with each well containing 100 µL of cell culture medium. […] Into the 96-well plate, the diluted test compounds and corresponding detection reagents were added, resulting in final test compound concentrations of 500 nM and 10 nM, respectively. The experimental procedure is described below using the diluted 2 µM test compound as an example.
(§3) 0.5 µL of the aforementioned diluted compound of the present disclosure (including the compounds in Table 1 and Examples) was added to the seeded cells in 100 µL of medium, yielding a final test compound concentration of 10 nM. After the cells were treated with the compounds of the present disclosure for a specified period, the cell viability assay reagent was added to the culture medium according to the kit's instructions to determine cell viability. […] All controls were treated using the same procedure as the compounds of the present disclosure. The growth inhibition curves for the compounds of the present disclosure were plotted using Prism GraphPad software, and the IC50 values were calculated therefrom.

[3] = tested on: Human acute T lymphocytic leukemia cell (Molt4); experiment: as above; settings: MOLT-4, 96 h; for inhibition at 0.01 µM: read-out: Inhibition Rate at 10 nM (%); for inhibition at 0.5 µM: read-out: Inhibition Rate at 500 nM (%)
[4] = tested on: Human myeloid monocytic leukemia cell (MV-4-11); experiment: as above; settings: MV4-11, 96 h; for inhibition at 0.01 µM: read-out: Inhibition Rate at 10 nM (%); for inhibition at 0.5 µM: read-out: Inhibition Rate at 500 nM (%)
[5] = tested on: Human T cell acute lymphoblastic leukemia cell (CCRF-CEM); experiment: as above; settings: 96 h; for inhibition at 0.01 µM: read-out: Inhibition Rate at 10 nM (%); for inhibition at 0.5 µM: read-out: Inhibition Rate at 500 nM (%)
Protocol: as §1, §2, §3

[6] = tested on: Human acute myeloid leukemia cell line: Kasumi-1; experiment: as above; settings: Kasumi 1, 96 h; for inhibition at 0.01 µM: read-out: Inhibition Rate at 10 nM (%); for inhibition at 0.5 µM: read-out: Inhibition Rate at 500 nM (%)
[7] = tested on: Human T lymphocytic leukemia cell line: Jurkat; experiment: as above; settings: 96 h; for inhibition at 0.01 µM: read-out: Inhibition Rate at 10 nM (%); for inhibition at 0.5 µM: read-out: Inhibition Rate at 500 nM (%)
[8] = tested on: Human multiple myeloma peripheral blood B lymphocyte cell (RPMI-8226); experiment: as above; settings: RPMI-8226, 96 h
[9] = Western blot, 24 hours of compound treatment, compounds tested at 50 nM and 500 nM (concentration for the table not stated)
[10] = 24 hours treatment, compounds at 50 nM and 500 nM (concentration behind the class not stated)

T1 sequence (P48729 whole entry): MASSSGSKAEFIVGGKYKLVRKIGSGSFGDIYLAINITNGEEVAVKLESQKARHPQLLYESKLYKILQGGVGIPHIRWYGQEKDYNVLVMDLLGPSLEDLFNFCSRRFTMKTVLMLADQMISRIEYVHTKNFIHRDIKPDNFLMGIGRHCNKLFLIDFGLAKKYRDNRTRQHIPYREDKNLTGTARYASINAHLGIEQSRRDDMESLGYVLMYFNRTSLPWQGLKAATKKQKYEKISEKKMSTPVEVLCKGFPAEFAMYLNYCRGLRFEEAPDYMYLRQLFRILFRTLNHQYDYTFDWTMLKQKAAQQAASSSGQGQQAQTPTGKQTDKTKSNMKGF
T1 sequence (Q96SW2 whole entry): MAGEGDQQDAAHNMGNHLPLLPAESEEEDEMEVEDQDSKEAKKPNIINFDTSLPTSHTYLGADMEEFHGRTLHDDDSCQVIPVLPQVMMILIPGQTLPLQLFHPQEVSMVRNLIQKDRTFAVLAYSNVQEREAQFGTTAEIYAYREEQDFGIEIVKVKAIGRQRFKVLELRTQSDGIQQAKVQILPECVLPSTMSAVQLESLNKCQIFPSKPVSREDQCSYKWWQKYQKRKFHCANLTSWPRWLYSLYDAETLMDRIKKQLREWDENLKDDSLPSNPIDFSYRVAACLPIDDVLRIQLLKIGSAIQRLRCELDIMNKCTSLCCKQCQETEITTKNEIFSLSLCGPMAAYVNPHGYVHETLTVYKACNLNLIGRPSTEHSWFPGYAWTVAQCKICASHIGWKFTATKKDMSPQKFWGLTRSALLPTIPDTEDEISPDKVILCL
T1 sequence (Q16531 whole entry partner): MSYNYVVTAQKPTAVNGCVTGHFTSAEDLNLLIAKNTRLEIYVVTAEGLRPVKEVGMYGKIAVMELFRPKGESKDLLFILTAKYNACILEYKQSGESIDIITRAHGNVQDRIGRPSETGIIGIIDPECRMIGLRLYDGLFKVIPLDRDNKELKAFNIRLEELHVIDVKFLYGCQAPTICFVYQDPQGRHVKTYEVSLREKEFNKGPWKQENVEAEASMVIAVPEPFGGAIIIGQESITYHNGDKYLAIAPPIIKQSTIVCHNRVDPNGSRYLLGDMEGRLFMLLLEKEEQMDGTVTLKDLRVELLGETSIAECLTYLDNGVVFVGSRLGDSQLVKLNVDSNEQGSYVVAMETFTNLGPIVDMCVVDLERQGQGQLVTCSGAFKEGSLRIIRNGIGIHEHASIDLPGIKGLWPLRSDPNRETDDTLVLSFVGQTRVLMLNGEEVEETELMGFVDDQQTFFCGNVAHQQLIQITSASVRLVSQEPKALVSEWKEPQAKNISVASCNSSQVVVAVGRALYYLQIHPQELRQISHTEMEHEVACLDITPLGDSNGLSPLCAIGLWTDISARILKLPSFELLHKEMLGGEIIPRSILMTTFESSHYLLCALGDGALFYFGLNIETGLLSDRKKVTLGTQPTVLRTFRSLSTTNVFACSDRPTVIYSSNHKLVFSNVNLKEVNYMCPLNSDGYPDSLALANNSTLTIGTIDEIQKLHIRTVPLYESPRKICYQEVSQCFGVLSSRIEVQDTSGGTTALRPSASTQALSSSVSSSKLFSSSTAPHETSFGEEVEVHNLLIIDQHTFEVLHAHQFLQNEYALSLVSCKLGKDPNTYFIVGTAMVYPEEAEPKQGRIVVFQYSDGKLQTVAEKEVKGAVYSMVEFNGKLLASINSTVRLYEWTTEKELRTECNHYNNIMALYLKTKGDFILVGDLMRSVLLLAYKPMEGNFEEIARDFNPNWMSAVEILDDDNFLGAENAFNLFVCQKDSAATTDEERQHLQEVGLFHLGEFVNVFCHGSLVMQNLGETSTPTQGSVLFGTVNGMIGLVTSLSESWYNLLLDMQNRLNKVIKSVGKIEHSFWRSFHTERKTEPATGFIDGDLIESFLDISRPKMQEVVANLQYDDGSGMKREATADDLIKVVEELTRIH
T2 sequence (Q13422 whole entry): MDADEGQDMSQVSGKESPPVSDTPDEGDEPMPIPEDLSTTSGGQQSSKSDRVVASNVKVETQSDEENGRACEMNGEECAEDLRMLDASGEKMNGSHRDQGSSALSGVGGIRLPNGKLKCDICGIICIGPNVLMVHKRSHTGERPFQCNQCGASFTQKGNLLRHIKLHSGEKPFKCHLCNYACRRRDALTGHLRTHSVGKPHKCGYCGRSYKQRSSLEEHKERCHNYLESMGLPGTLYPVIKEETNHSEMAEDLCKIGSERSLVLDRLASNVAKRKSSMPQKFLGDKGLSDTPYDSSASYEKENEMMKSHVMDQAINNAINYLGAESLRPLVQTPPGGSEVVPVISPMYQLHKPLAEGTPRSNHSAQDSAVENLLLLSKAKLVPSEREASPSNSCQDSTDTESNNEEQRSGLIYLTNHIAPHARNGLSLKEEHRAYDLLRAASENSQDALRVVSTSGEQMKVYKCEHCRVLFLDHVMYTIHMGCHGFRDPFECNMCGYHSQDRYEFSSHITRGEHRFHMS
T2 sequence (Q96SW2 whole entry): as the sequence (Q96SW2 whole entry) above
T2 sequence (Q16531 whole entry partner): as the sequence (Q16531 whole entry partner) above
T5 sequence (P30291 whole entry): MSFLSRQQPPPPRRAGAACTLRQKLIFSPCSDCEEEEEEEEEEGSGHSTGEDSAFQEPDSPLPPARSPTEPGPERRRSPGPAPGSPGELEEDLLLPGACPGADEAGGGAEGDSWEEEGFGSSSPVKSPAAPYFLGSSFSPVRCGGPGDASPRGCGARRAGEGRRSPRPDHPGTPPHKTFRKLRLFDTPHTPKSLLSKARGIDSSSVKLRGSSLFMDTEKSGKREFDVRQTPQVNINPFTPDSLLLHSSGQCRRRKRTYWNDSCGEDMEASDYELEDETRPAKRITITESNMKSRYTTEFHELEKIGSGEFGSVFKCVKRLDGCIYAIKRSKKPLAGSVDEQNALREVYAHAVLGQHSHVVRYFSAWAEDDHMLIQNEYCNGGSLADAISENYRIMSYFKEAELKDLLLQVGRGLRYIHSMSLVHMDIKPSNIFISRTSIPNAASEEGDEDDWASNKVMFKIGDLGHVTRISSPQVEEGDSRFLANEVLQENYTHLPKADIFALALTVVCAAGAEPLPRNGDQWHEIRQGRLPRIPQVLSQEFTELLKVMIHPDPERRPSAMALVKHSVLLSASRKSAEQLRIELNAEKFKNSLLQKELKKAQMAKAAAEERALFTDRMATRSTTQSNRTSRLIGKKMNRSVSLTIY
T5 sequence (Q96SW2 whole entry): as the sequence (Q96SW2 whole entry) above
T5 sequence (Q16531 whole entry partner): as the sequence (Q16531 whole entry partner) above
T3 sequence (Q9UKS7 whole entry): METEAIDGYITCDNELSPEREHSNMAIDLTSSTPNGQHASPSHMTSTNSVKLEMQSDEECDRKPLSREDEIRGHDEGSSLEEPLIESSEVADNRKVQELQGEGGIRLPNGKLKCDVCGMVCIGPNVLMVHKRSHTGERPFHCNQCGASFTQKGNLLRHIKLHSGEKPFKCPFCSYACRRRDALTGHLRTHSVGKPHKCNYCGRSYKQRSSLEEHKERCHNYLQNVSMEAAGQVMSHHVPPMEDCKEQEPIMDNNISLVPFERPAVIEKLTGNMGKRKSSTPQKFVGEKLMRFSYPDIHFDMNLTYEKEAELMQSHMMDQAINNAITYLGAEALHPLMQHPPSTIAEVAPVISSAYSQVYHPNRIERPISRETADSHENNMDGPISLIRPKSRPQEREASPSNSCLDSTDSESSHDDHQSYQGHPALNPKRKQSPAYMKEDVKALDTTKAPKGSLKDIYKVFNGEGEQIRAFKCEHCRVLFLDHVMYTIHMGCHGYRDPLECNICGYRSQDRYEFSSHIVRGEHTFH
T3 sequence (Q96SW2 whole entry): as the sequence (Q96SW2 whole entry) above
T3 sequence (Q16531 whole entry partner): as the sequence (Q16531 whole entry partner) above
T4 sequence (Q9UKT9 whole entry): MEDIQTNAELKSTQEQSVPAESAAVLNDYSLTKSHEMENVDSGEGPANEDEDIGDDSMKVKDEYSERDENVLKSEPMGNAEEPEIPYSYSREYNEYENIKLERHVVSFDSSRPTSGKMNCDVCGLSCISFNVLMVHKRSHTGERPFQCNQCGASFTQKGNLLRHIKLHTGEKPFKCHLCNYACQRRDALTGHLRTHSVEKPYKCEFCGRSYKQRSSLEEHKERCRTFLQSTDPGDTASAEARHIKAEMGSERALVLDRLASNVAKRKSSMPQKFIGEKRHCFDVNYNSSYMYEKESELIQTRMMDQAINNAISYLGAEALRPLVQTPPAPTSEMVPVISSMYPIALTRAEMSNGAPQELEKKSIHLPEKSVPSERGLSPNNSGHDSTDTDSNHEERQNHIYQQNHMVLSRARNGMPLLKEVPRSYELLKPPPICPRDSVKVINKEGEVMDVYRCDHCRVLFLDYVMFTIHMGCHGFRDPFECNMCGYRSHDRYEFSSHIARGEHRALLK
T4 sequence (Q96SW2 whole entry): as the sequence (Q96SW2 whole entry) above
T4 sequence (Q16531 whole entry partner): as the sequence (Q16531 whole entry partner) above
T6 sequence (Q96SW2 whole entry): as the sequence (Q96SW2 whole entry) above

## O=C1CCC(N2Cc3cc(CN4CCN(c5ccccc5)CC4)ccc3C2=S)C(=O)N1 (centres unmarked) [GT-08205, 3-(5-((4-phenylpiperazin-1-yl)methyl)-1-thioxoisoindolin-2-yl)piperidine-2,6-dione]
CK1α; [9]
  CK1α substrate protein remaining %: B (80%< substrate protein remaining %≤ 100%)
IKZF1; [9]
  IKZF 1 substrate protein remaining %: B (80%< substrate protein remaining %≤ 100%)
IKZF2; [9]
  IKZF2 substrate protein remaining %: A (0% ≤ substrate protein remaining % ≤ 80%)
IKZF3; [9]
  IKZF3 substrate protein remaining %: A (0% ≤ substrate protein remaining % ≤ 80%)
WEE1; [9]
  Wee1 substrate protein remaining %: A (0% ≤ substrate protein remaining % ≤ 80%)
GSPT1; [9]
  GSPT1 substrate protein remaining %: A (0% ≤ substrate protein remaining % ≤ 80%)
[1]
  inhibition at 0.5 µM: 60 to 80%
  inhibition at 2 µM: 80 to 100%
[2]
  inhibition at 0.01 µM: 10 to 20%
[2]; MM.1S, 500 nM, 96 hours
  Inhibition Rate at 500 nM (%): la8
[3]
  inhibition at 0.01 µM: 0 to 5%
  inhibition at 0.5 µM: 60 to 70%
[4]
  inhibition at 0.01 µM: 5 to 10%
  inhibition at 0.5 µM: 80 to 100%
[5]
  inhibition at 0.01 µM: 10 to 20%
  inhibition at 0.5 µM: 60 to 70%
[6]
  inhibition at 0.01 µM: 10 to 20%
  inhibition at 0.5 µM: 40 to 50%
[7]
  inhibition at 0.01 µM: 5 to 10%
  inhibition at 0.5 µM: 30 to 40%

## O=C1CCC(N2Cc3cc(CN4CCC(c5ccsc5)CC4)ccc3C2=S)C(=O)N1 (centres unmarked) [GT-08324, 3-(5-((4-(thiophen-3-yl)piperidin-1-yl)methyl)-1-thioxoisoindolin-2-yl)piperidine-2,6-dione]
CK1α; [10]
  CK1α substrate protein remaining %: A (0% ≤ substrate protein remaining % ≤ 80%)
IKZF1; [10]
  IKZF 1 substrate protein remaining %: A (0% ≤ substrate protein remaining % ≤ 80%)
IKZF2; [10]
  IKZF2 substrate protein remaining %: A (0% ≤ substrate protein remaining % ≤ 80%)
IKZF3; [10]
  IKZF3 substrate protein remaining %: B (80%< substrate protein remaining %≤ 100%)
WEE1; [10]
  Wee1 substrate protein remaining %: A (0% ≤ substrate protein remaining % ≤ 80%)
GSPT1; [10]
  GSPT1 substrate protein remaining %: A (0% ≤ substrate protein remaining % ≤ 80%)
[1]
  inhibition at 0.5 µM: 60 to 80%
  inhibition at 2 µM: 80 to 100%
[2]
  inhibition at 0.01 µM: 20 to 30%
  inhibition at 0.5 µM: 80 to 100%
[3]
  inhibition at 0.01 µM: 10 to 20%
  inhibition at 0.5 µM: 80 to 100%
[4]
  inhibition at 0.01 µM: 30 to 40%
  inhibition at 0.5 µM: 80 to 100%
[5]
  inhibition at 0.01 µM: 5 to 10%
  inhibition at 0.5 µM: 80 to 100%
[6]
  inhibition at 0.01 µM: 0 to 5%
  inhibition at 0.5 µM: 60 to 70%
[7]
  inhibition at 0.01 µM: -5 to 0%
  inhibition at 0.5 µM: 40 to 50%

## O=C1CCC(N2Cc3cc(CN4CCC(c5cccc(F)c5F)CC4)ccc3C2=S)C(=O)N1 (centres unmarked) [GT-08331, 3-(5-((4-(2,3-difluorophenyl)piperidin-1-yl)methyl)-1-thioxoisoindolin-2-yl)piperidine-2,6-dione]
CK1α; [10]
  CK1α substrate protein remaining %: A (0% ≤ substrate protein remaining % ≤ 80%)
IKZF1; [10]
  IKZF 1 substrate protein remaining %: A (0% ≤ substrate protein remaining % ≤ 80%)
IKZF2; [10]
  IKZF2 substrate protein remaining %: A (0% ≤ substrate protein remaining % ≤ 80%)
IKZF3; [10]
  IKZF3 substrate protein remaining %: B (80%< substrate protein remaining %≤ 100%)
WEE1; [10]
  Wee1 substrate protein remaining %: A (0% ≤ substrate protein remaining % ≤ 80%)
GSPT1; [10]
  GSPT1 substrate protein remaining %: A (0% ≤ substrate protein remaining % ≤ 80%)
[1]
  inhibition at 0.5 µM: 40 to 53%
  inhibition at 2 µM: 80 to 100%
[2]
  inhibition at 0.01 µM: 10 to 20%
  inhibition at 0.5 µM: 80 to 100%
[8]; read-out: Inhibition Rate at 10 nM (%)
  inhibition at 0.01 µM: 10 to 20%
[8]; read-out: Inhibition Rate at 500 nM (%)
  inhibition at 0.5 µM: 40 to 50%
[3]
  inhibition at 0.01 µM: 10 to 20%
  inhibition at 0.5 µM: 80 to 100%
[5]
  inhibition at 0.01 µM: 5 to 10%
  inhibition at 0.5 µM: 80 to 100%
[6]
  inhibition at 0.01 µM: 5 to 10%
  inhibition at 0.5 µM: 70 to 80%
[7]
  inhibition at 0.01 µM: 5 to 10%
  inhibition at 0.5 µM: 50 to 60%

## O=C1CCC(N2Cc3cc(CN4CC=C(c5ccoc5)CC4)ccc3C2=S)C(=O)N1 (centres unmarked) [GT-08328, 3-(5-((4-(furan-3-yl)-3,6-dihydropyridin-1(2H)-yl)methyl)-1-thioxoisoindolin-2-yl)piperidine-2,6-dione]
CK1α; [10]
  CK1α substrate protein remaining %: A (0% ≤ substrate protein remaining % ≤ 80%)
IKZF1; [10]
  IKZF 1 substrate protein remaining %: B (80%< substrate protein remaining %≤ 100%)
IKZF2; [10]
  IKZF2 substrate protein remaining %: B (80%< substrate protein remaining %≤ 100%)
IKZF3; [10]
  IKZF3 substrate protein remaining %: B (80%< substrate protein remaining %≤ 100%)
WEE1; [10]
  Wee1 substrate protein remaining %: A (0% ≤ substrate protein remaining % ≤ 80%)
GSPT1; [10]
  GSPT1 substrate protein remaining %: A (0% ≤ substrate protein remaining % ≤ 80%)
[1]
  inhibition at 0.5 µM: 60 to 80%
  inhibition at 2 µM: 80 to 100%
[2]
  inhibition at 0.01 µM: 50 to 60%
  inhibition at 0.5 µM: 80 to 100%
[3]
  inhibition at 0.01 µM: 10 to 20%
  inhibition at 0.5 µM: 80 to 100%
[4]
  inhibition at 0.01 µM: 40 to 60%
  inhibition at 0.5 µM: 80 to 100%
[5]
  inhibition at 0.01 µM: 10 to 20%
  inhibition at 0.5 µM: 80 to 100%
[6]
  inhibition at 0.01 µM: 5 to 10%
  inhibition at 0.5 µM: 60 to 70%
[7]
  inhibition at 0.01 µM: 0 to 5%
  inhibition at 0.5 µM: 40 to 50%
